pIC50: −log10 of the molar value. Read-outs that look alike come from different tables or passages of the source.
Tests used:
AChE = biological target: T1, AChE (Rattus norvegicus, UniProt P37136); assay: biochemical; settings: Table 6
T1 construct: 0.1-0.2 ml of enzyme solution (red cell membrane or serum of rat) was added; from tissue; host or cells: rat tissue
T1 sequence (P37136 32-614): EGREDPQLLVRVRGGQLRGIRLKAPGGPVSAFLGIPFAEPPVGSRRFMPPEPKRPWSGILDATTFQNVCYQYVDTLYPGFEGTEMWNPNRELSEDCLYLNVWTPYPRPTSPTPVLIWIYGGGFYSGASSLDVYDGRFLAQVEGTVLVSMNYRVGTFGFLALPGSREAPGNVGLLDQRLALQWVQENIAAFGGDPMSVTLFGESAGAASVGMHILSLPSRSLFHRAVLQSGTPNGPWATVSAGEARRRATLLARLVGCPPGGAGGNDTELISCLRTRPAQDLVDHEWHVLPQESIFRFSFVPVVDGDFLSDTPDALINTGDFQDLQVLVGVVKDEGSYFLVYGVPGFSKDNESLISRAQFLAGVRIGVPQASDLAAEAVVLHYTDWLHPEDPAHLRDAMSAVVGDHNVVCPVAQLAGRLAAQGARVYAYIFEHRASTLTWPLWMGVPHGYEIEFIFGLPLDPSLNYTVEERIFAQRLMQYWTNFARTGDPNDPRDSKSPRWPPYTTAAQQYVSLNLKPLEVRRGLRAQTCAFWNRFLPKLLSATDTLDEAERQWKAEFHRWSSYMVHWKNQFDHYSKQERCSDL
Procedure: (§1) In the present invention a calorimetric method reported by Ellman was used to determine the effect of inhibition of the pharmaceutical on enzyme activity. The total volume of the solution of the enzyme activity reaction was 4 ml, which contained 0.3 mmol/L of acetylcholin iodide (acetylcholinesterase substrate), or 0.4 mmol/L of butyrylcholin iodide (butyrylcholinesterase substrate), 1 ml of the buffer solution of 25 mmol/L of phosphate of pH 7.4, and water to make up to 4 ml (including the amount of the enzyme solution and the testing reagent added afterwards). After the solution was kept at 37° C. for 5 minutes, 0.1-0.2 ml of enzyme solution (red cell membrane or serum of rat) was added, or 0.1-0.3 ml of the testing reagent was added at the same time. The solution was kept at the same temperature for another 8 minutes. Then 1 ml of 3% of sodium lauryl sulphate was added to terminate the reaction. Finally 1 ml of 0.2% 5,5-dithio-2,2′-nitro-benzoic acid solution was added for developing.

BuChE = biological target: T2, BuChE (Rattus norvegicus, UniProt Q9JKC1); assay: In-vitro anticholinesterase effect (Table 6), BuChE; type: biochemical; settings: read-out: inhibition activity BuChE at 10(μM)
T2 construct: from tissue; host or cells: rat serum
T2 sequence (Q9JKC1 24-597): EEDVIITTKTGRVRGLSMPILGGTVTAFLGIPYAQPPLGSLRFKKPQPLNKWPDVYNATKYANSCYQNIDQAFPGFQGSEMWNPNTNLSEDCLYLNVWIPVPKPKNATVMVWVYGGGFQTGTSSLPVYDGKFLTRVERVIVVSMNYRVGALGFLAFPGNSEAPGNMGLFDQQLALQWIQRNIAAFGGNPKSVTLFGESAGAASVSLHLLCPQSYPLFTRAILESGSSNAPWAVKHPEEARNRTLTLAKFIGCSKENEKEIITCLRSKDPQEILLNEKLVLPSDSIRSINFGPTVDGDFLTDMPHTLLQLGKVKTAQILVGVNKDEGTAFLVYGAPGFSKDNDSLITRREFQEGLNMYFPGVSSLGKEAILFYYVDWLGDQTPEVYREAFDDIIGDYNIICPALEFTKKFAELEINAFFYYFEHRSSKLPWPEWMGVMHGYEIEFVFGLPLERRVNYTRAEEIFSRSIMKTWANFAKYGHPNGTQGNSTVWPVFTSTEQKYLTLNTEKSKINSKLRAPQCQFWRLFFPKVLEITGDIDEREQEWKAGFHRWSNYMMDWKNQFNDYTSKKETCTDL
Procedure: as §1

[1] = biological target: T3, acetylcholinesterase (AChE) (Rattus norvegicus, UniProt P37136); assay: biochemical; type: biochemical; settings: for pIC50 / IC50 ratio BuChE/AChE: Table 1; for pIC50: AChE taken from rat's red cell membrane; for IC50 ratio BuChE/AChE: red cell membrane AChE, serum BuChE; for inhibition effect on acetylcholinesterase (in words) / inhibition effect on acetylcholinesterase compared with huperzine A / inhibition effect on acetylcholinesterase compared with physostigmine and galanthamine: see Tables 1, 2 and 6
T3 construct: from tissue; host or cells: rat red cell membrane
Procedure: as §1
(§2) AChE taken from rat's red cell membrane. BuChE taken from rat's serum.
T3 sequence (P37136 other isoform, or with tags, fused parts or gaps): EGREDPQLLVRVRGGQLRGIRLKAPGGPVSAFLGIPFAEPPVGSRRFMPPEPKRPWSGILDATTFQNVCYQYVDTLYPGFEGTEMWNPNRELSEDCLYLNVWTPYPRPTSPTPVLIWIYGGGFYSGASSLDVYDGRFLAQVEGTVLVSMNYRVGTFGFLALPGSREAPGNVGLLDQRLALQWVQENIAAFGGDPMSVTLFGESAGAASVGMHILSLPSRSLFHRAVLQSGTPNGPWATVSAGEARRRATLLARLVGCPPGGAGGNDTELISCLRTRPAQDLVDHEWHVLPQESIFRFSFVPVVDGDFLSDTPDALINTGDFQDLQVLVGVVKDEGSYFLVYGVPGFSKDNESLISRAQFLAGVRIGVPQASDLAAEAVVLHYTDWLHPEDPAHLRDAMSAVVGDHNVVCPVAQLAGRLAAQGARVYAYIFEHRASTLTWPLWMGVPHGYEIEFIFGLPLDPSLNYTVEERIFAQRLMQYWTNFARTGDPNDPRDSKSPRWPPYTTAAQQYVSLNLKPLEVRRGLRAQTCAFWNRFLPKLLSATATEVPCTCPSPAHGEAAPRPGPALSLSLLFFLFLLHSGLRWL

[2] = tested on: memory impairment caused by scopolamine; assay: Mouse passive escape operation (platform jumping method), memory impairment caused by scopolamine; type: in vivo, mice; settings: for delitescence of get-down (sec ± SEM): mice, tested after 24 hours; for effect on improving memory (in words): mouse passive escape operation, compared with compound of formula (I)
acetylcholinesterase = biological target: T4, acetylcholinesterase (Rattus norvegicus, UniProt P37136); assay: Study on kinetics of enzyme; type: biochemical
T4 sequence (P37136 32-614): T1 sequence (P37136 32-614)
Procedure: In the present invention a calorimetric method reported by Ellman was used to determine the effect of inhibition of the pharmaceutical on enzyme activity. The total volume of the solution of the enzyme activity reaction was 4 ml, which contained 0.3 mmol/L of acetylcholin iodide (acetylcholinesterase substrate), or 0.4 mmol/L of butyrylcholin iodide (butyrylcholinesterase substrate), 1 ml of the buffer solution of 25 mmol/L of phosphate of pH 7.4, and water to make up to 4 ml (including the amount of the enzyme solution and the testing reagent added afterwards). After the solution was kept at 37° C. for 5 minutes, 0.1-0.2 ml of enzyme solution (red cell membrane or serum of rat) was added, or 0.1-0.3 ml of the testing reagent was added at the same time. The solution was kept at the same temperature for another 8 minutes. Then 1 ml of 3% of sodium lauryl sulphate was added to terminate the reaction. Finally 1 ml of 0.2% 5,5-dithio-2,2′-nitro-benzoic acid solution was added for developing. “721” spectrophotometer was used to determine the density of light at 440 nm. A solution without addition of the pharmaceutical to inhibit the enzyme activity was used as a control (100%).

[3] = Critical toxicity on mice (Bliss method); type: in vivo; settings: mouse, in vivo, po, mice, p.o., Bliss method, mortality within 7 days
Procedure: (§3) Test of each pharmaceutical was carried out using 4-5 dosage group.
(§4) Mortality within 7 days was observed.

mice = assay: Critical toxicity on mice (Bliss method); type: in vivo; settings: for LD50 relative to that of the compound of formula (I): mice; for critical toxicity compared with compound (I): mouse, in vivo
Procedure: as §3, §4

[4] = biological target: T5, acetylcholinesterase (AChE) (Rattus norvegicus, UniProt P37136); assay: biochemical; type: biochemical; settings: Table 2; for pIC50: AChE taken from homogenate of rat's cortex; for IC50 ratio BuChE/AChE: cortex AChE, serum BuChE
T5 construct: from tissue; host or cells: homogenate of rat cortex
T5 sequence (P37136 32-614): T1 sequence (P37136 32-614)
Procedure: as §1
(§5) AChE taken from homogenate of rat's cortex. BuChE taken from rat's serum.

[5] = biological target: T6, butyrylcholinesterase (BuChE) (Rattus norvegicus, UniProt Q9JKC1); assay: In-vitro anticholinesterase effect, colorimetric method (Ellman), BuChE from rat's serum; type: biochemical; settings: for inhibition effect on butyrylcholinesterase (pseudo enzyme) compared with huperzine A: see Tables 1, 2 and 6
T6 construct: from tissue; host or cells: rat serum
T6 sequence (Q9JKC1 24-597): as the sequence (Q9JKC1 24-597) above
Procedure: as §1, §2, §5

[6] = tested on: memory impairment caused by scopolamine; assay: 8-arm maze spatial distinction operation of rat, memory impairment caused by scopolamine; type: in vivo; settings: for effect on improving memory (in words): 8-arm maze spatial distinction operation of rat, compared with compound of formula (I); for No. of mistakes in operation before reaching the standard, reference memory (X + SEM) / No. of mistakes in operation before reaching the standard, working memory (X + SEM): rats, 8-arm maze
[7] = scopolamine + derivative 2 + 0.2 mg/kg ip + po
[8] = scopolamine + derivative 2 + 0.4 mg/kg ip + po
[9] = first of two columns headed LD50, read-out: LD50 (first column) (95% confidence limit)
[10] = second of two columns headed LD50, read-out: LD50 (second column) (95% confidence limit)
[11] = scopolamine + derivative 0.124 + 0.2 mg/kg ip + po
[12] = scopolamine + derivative 0.2 ± 0.1 mg/kg ip + po
[13] = scopolamine + derivative 0.2 ± 0.3 mg/kg ip + po

| SMILES | inhibitor of acetylcholinesterase (summary in words) [1] | pIC50 [1] | IC50 ratio BuChE/AChE [1] | inhibition effect on acetylcholinesterase (in words) [1] | inhibition effect on acetylcholinesterase compared with huperzine A [1] | inhibition effect on acetylcholinesterase compared with physostigmine and galanthamine [1] | delitescence of get-down (sec ± SEM) [2, 7] [s] | delitescence of get-down (sec ± SEM) [2, 8] [s] | effect on improving memory (in words) [2] | combination with acetylcholinesterase (reversibility) (acetylcholinesterase) | LD50 [3, 9] [mg/kg] | LD50 [3, 10] [mg/kg] | LD50 relative to that of the compound of formula (I) (mice) | critical toxicity compared with compound (I) (mice) | pIC50 [4] | IC50 ratio BuChE/AChE [4] | pIC50 [5] | inhibition effect on butyrylcholinesterase (pseudo enzyme) compared with huperzine A [5] | effect on improving memory (in words) [6] | other results |
| --- | --- | --- | --- | --- | --- | --- | --- | --- | --- | --- | --- | --- | --- | --- | --- | --- | --- | --- | --- | --- |
| CC=C1C2C=C(C)CC1(N=Cc1ccc(OC)c(O)c1)c1ccc(=O)[nH]c1C2 (stereo not drawn) [derivative No. 18] | highly effective selective inhibitors | 6.82 | 709.9 | remarkable inhibition effect | slightly weaker | apparently stronger | 67.7 ± 11.7 | 48.7 ± 6.9 | very strong effect | reversible | 9.6 | 14.4 | ⅓ | lower critical toxicity | 6.82 | 708.2 | 3.97 | weaker inhibition effect | very strong effect | BuChE/AChE (AChE): >500; inhibition at 1 µM (AChE; 1 μM): 90.2%; pIC50 (AChE; read-out: inhibition activity AChE IC50): 7.08; inhibition at 10 µM (BuChE): 0%; delitescence of get-down (sec ± SEM) ([2]; scopolamine + derivative 3 + 0.3 mg/kg ip + po): 64.0 ± 9.8 s; No. of mistakes in operation before reaching the standard, reference memory (X + SEM) [6, 11]: 0.67; No. of mistakes in operation before reaching the standard, working memory (X + SEM) [6, 11]: 0.33 |
| CC=C1C2C=C(C)CC1(N=Cc1c(O)cc(OC)cc1OC)c1ccc(=O)[nH]c1C2 (stereo not drawn) [derivative No. 19] | highly effective selective inhibitors | 6.84 | 722.1 | remarkable inhibition effect | slightly weaker | apparently stronger | 71.6 ± 14.5 | 92.2 ± 15.5 | very strong effect | reversible | 11.1 | 14.1 | ⅓ | lower critical toxicity | 6.84 | 724.6 | 3.98 | weaker inhibition effect | very strong effect | delitescence of get-down (sec ± SEM) ([2]; scopolamine + derivative 2 + 0.1 mg/kg ip + po): 48.9 ± 12.6 s; delitescence of get-down (sec ± SEM) ([2]; scopolamine + derivative 2 + 0.3 mg/kg ip + po): 99.8 ± 16.4 s; No. of mistakes in operation before reaching the standard, reference memory (X + SEM) [6, 12]: 1.33 ± 0.21; No. of mistakes in operation before reaching the standard, working memory (X + SEM) [6, 12]: 1.33; No. of mistakes in operation before reaching the standard, reference memory (X + SEM) [6, 13]: 0.33; No. of mistakes in operation before reaching the standard, working memory (X + SEM) [6, 13]: 0.17 |
